This assay concerns MDA-MB-231 cells. Description: Extracellular lactate production inhibition after 4 h, MDA-MB-231. The following applies: Homo sapiens, MDA-MB-231.
`COc1ccc(S(=O)(=O)Nc2ccccc2C#Cc2ccc(C(N)=O)nc2)c2ncccc12` [Compound 154, 5-{2-[2-(5-methoxyquinoline-8-sulfonamido)phenyl]ethynyl}pyridine-2-carboxamide] came in with a half-maximal inhibitory concentration (IC50) of 1 to 100 µM.
In the case of `CNC(=O)c1ccc(C#Cc2ccccc2NS(=O)(=O)c2ccc(OC)c3cccnc23)cn1` [Compound 156, 5-{2-[2-(5-methoxyquinoline-8-sulfonamido)phenyl]ethynyl}-N-methylpyridine-2-carboxamide] it was 1 to 100 µM; in that of `O=C(O)c1ccc(C#Cc2ccccc2NS(=O)(=O)c2ccc3c(c2)Cc2ccccc2-3)cn1` [Compound 92, 5-{2-[2-(9H-fluorene-2-sulfonamido)phenyl]ethynyl}pyridine-2-carboxylic acid], 0.01 to 0.1 µM; in that of `O=C(O)c1ccc(C#Cc2ccccc2NS(=O)(=O)c2ccc3ncccc3c2)cc1` [Compound 55, 4-{2-[2-(quinoline-6-sulfonamido)phenyl]ethynyl}benzoic acid], 1 to 100 µM.
The result for `O=C(O)c1ccc(C#Cc2ccccc2NS(=O)(=O)C2=Cc3ccccc3CC2)cc1` [Compound 78, 4-{2-[2-(3,4-dihydronaphthalene-2-sulfonamido)phenyl]ethynyl}benzoic acid] reads 0.1 to 1 µM; that for `O=CN(Cc1cccc(Oc2ccccc2)c1)c1ccccc1C#Cc1ccc(C(=O)O)nc1` [Compound 203, 5-[2-(2-{N-[(3-phenoxyphenyl)methyl]-formamido}phenyl)ethynyl]pyridine-2-carboxylic acid], 0.1 to 1 µM.
In the case of `COc1ccc(S(=O)(=O)Nc2ccccc2C#Cc2ccc(C(N)=O)cc2)c2ccccc12` [Compound 261, 4-[2-(4-Methoxy-naphthalene-1-sulfonylamino)-phenylethynyl]-benzamide] it was 1 to 100 µM; in that of `COc1cc(C#Cc2ccccc2NS(=O)(=O)c2c(C)ccc3cccnc23)cnc1C(=O)O` [Compound 171, 3-methoxy-5-{2-[2-(7-methylquinoline-8-sulfonamido)phenyl]ethynyl}pyridine-2-carboxylic acid], 0.1 to 1 µM; in that of `CS(=O)(=Nc1ccccc1C#Cc1ccc(C(=O)O)nc1)c1ccc(F)cc1` (stereo not drawn) [Compound 431, 5-[2-(2-{[(4-fluorophenyl)(methyl)oxo-λ6-sulfanylidene]amino}phenyl)ethynyl] pyridine-2-carboxylic acid], 1 to 100 µM.
Molecule `COC(=O)c1ccc(C#Cc2cc([N+](=O)[O-])ccc2NS(=O)(=O)c2c(C)ccc3cccnc23)cn1` [Compound 244, methyl 5-{2-[2-(7-methylquinoline-8-sulfonamido)-5-nitrophenyl]ethynyl}-pyridine-2-carboxylate] registered an IC50 of 0.01 to 0.1 µM.
The result for `Cc1cc(C#Cc2ccccc2NS(=O)(=O)c2ccc3c(c2)Cc2ccccc2-3)cnc1C(=O)O` [Compound 118, 5-{2-[2-(9H-fluorene-2-sulfonamido)phenyl]ethynyl}-3-methylpyridine-2-carboxylic acid] reads 0.1 to 1 µM; that for `CNc1cc(C#Cc2ccccc2NS(=O)(=O)c2ccc(OC)c(C)c2C)cnc1C(=O)O` [Compound 378, 5-{2-[2-(4-methoxy-2,3-dimethyl-benzenesulfonamido)phenyl]ethynyl}-3-(methylamino)pyridine-2-carboxylic acid], 0.01 to 0.1 µM.
The result for `O=C(O)c1ccc(C#Cc2cc(F)ccc2NS(=O)(=O)c2cccc3ccccc23)cc1` [Compound 68, 4-{2-[5-fluoro-2-(naphthalene-1-sulfonamido)phenyl]ethynyl}benzoic acid] reads 0.1 to 1 µM; that for `COc1ccc(S(=O)(=O)Nc2ccc(Br)cc2C#Cc2cnc(C(=O)O)c3ccccc23)c2ncccc12` [Compound 235, 4-{2-[5-bromo-2-(5-methoxyquinoline-8-sulfonamido)phenyl]ethynyl}isoquinoline-1-carboxylic acid], 0.001 to 0.01 µM; that for `COc1ccc(-c2cccc(S(=O)(=O)Nc3ccccc3C#Cc3ccc(C(=O)O)nc3)c2)c(OC)n1` [Compound 125, 5-(2-{2-[3-(2,6-dimethoxypyridin-3-yl)benzenesulfonamido]phenyl}-ethynyl)pyridine-2-carboxylic acid], 0.1 to 1 µM.
`COc1cc(C(=O)O)ncc1C#Cc1ccccc1NS(=O)(=O)c1ccc(OC(F)(F)F)c2cccnc12` [Compound 389, 4-Methoxy-5-[2-(5-trifluoromethoxy-quinoline-8-sulfonylamino)-phenylethynyl]-pyridine-2-carboxylic acid] returned a 50% inhibitory concentration (IC50) of 0.001 to 0.01 µM.
In the case of `CCOC(=O)c1ccc(C#Cc2ccccc2NS(=O)(=O)c2ccc(OC)c3cccnc23)cn1` [Compound 165, ethyl 5-{2-[2-(5-methoxyquinoline-8-sulfonamido)phenyl]ethynyl}pyridine-2-carboxylate] it was 0.01 to 0.1 µM.
The result for `COc1ccc(S(=O)(=O)Nc2ccc(Cl)cc2C#Cc2cnc(C(=O)O)cc2OC)cc1` [Compound 388, 5-[5-Chloro-2-(4-methoxy-benzenesulfonylamino)-phenylethynyl]-4-methoxy-pyridine-2-carboxylic acid] reads 0.01 to 0.1 µM.
Take `O=C(O)c1ccc(C#Cc2ccccc2NS(=O)(=O)c2ccc(Cl)c3nonc23)cn1` [Compound 99, 5-{2-[2-(7-chloro-2,1,3-benzoxadiazole-4-sulfonamido)phenyl]ethynyl}pyridine-2-carboxylic acid]: the half-inhibitory concentration (IC50) was 1 to 100 µM.
The result for `COc1cc(C(=O)O)ncc1C#Cc1ccccc1NS(=O)(=O)c1cccc2c(N(C)C)ccnc12` [Compound 418, 5-[2-(4-Dimethylamino-quinoline-8-sulfonylamino)-phenylethynyl]-4-methoxy-pyridine-2-carboxylic acid] reads 0.1 to 1 µM.
The result for `Cc1cc(C#Cc2ccccc2NS(=O)(=O)c2cccc3cccnc23)cnc1C(=O)O` [Compound 59, 3-methyl-5-{2-[2-(quinoline-8-sulfonamido)phenyl]ethynyl}pyridine-2-carboxylic acid] reads 0.1 to 1 µM; that for `O=C(O)c1ncc(C#Cc2ccccc2NS(=O)(=O)c2cccc3ccccc23)cc1F` [Compound 279, 3-fluoro-5-{2-[2-(naphthalene-1-sulfon-amido)phenyl]ethynyl}pyridine-2-carboxylic acid], 1 to 100 µM; that for `Cc1cc(C#Cc2cc(F)ccc2NS(=O)(=O)c2c(C)ccc3cccnc23)cnc1C(=O)O` [Compound 307, 5-{2-[5-fluoro-2-(7-methylquinoline-8-sulfonamido)phenyl]ethynyl}-3-methylpyridine-2-carboxylic acid], 0.01 to 0.1 µM.
With `O=C(O)c1ncc(C#Cc2ccccc2NS(=O)(=O)c2cccc3c(Cl)ccnc23)c2ccccc12` [Compound 441, 4-{2-[2-(4-chloroquinoline-8-sulfonamido)phenyl]ethynyl}iso-quinoline-1-carboxylic acid], the IC50 is 0.1 to 1 µM.
As for `COc1ccc(S(=O)(=O)Nc2ccc(F)cc2C#Cc2cnc(C(=O)O)c(C)c2)c2ncccc12` [Compound 311, 5-{2-[5-fluoro-2-(5-methoxyquinoline-8-sulfonamido)phenyl]ethynyl}-3-methylpyridine-2-carboxylic acid], the half-inhibitory concentration (IC50) is 0.1 to 1 µM.
The molecule `Cn1c2ccccc2c2cc(S(=O)(=O)Nc3ccccc3C#Cc3ccc(C(=O)O)nc3)ccc21` [Compound 227, 5-{2-[2-(9-methyl-9H-carbazole-3-sulfonamido)phenyl]ethynyl}pyridine-2-carboxylic acid] yielded a concentration for half-maximal inhibition (IC50) of 0.01 to 0.1 µM.
The result for `COc1ccc(S(=O)(=O)Nc2ccccc2C#Cc2ccc(C(=O)NC(C)C)nc2)c2ncccc12` [Compound 392, 5-[2-(5-Methoxy-quinoline-8-sulfonylamino)-phenylethynyl]-pyridine-2-carboxylic acid isopropylamide] reads 0.1 to 1 µM; that for `Cc1ccc2cccnc2c1S(=O)(=O)Nc1ccccc1C#Cc1ccc(C(=O)OCC(O)CO)nc1` (stereo not drawn) [Compound 396, 2,3-dihydroxypropyl 5-{2-[2-(7-methylquinoline-8-sulfonamido)phenyl]ethynyl}pyridine-2-carboxylate], 0.001 to 0.01 µM; that for `Cc1ccc2cccnc2c1S(=O)(=O)Nc1ccccc1C#Cc1cnc(C(=O)O)cc1O` [Compound 193, 4-hydroxy-5-{2-[2-(7-methylquinoline-8-sulfonamido)phenyl]ethynyl}pyridine-2-carboxylic acid], 1 to 100 µM.
Molecule `O=C(O)c1ccc(C#Cc2ccccc2NS(=O)(=O)c2cc(Cl)c(Cl)s2)cc1` [Compound 275, 4-{2-[2-(4,5-dichlorothiophene-2-sulfonamido)phenyl]ethynyl}benzoic acid] registered an IC50 of 1 to 100 µM.
Consider `CCNc1cc(C#Cc2ccccc2NS(=O)(=O)c2ccc(OC)c3cccnc23)cnc1C(=O)O` [Compound 376, 3-(ethylamino)-5-{2-[2-(5-methoxyquinoline-8-sulfonamido)phenyl]ethynyl}pyridine-2-carboxylic acid], for which the half-maximal inhibitory concentration (IC50) lay within 0.001 to 0.01 µM.
The result for `Cc1ccc2cccnc2c1S(=O)(=O)Nc1ccccc1C#Cc1ccc(C(=O)OCC2COC(C)(C)O2)nc1` (stereo not drawn) [Compound 404, (2,2-dimethyl-1,3-dioxolan-4-yl)methyl 5-{2-[2-(7-methylquinoline-8-sulfonamido)phenyl]ethynyl}pyridine-2-carboxylate] reads 0.1 to 1 µM; that for `CCCOC(=O)c1ccc(C#Cc2ccccc2NS(=O)(=O)c2ccc(OC)c3cccnc23)cn1` [Compound 166, propyl 5-{2-[2-(5-methoxyquinoline-8-sulfonamido)phenyl]ethynyl}pyridine-2-carboxylate], 0.01 to 0.1 µM; that for `O=C(O)c1ccc(C#Cc2cc(F)ccc2NS(=O)(=O)c2cccc3cccnc23)cn1` [Compound 111, 5-{2-[5-fluoro-2-(quinoline-8-sulfonamido)phenyl]ethynyl}pyridine-2-carboxylic acid], 0.1 to 1 µM.
In the case of `CCOc1cc(C(=O)O)ncc1C#Cc1ccccc1NS(=O)(=O)c1c(C)ccc2cccnc12` [Compound 180, 4-ethoxy-5-{2-[2-(7-methylquinoline-8-sulfonamido)phenyl]ethynyl}pyridine-2-carboxylic acid] it was 0.01 to 0.1 µM; in that of `COc1c(C#Cc2ccccc2NS(=O)(=O)c2ccc(OC)c3cccnc23)cnc(C(=O)O)c1C` [Compound 370, 4-Methoxy-5-[2-(5-methoxy-quinoline-8-sulfonylamino)-phenylethynyl]-3-methyl-pyridine-2-carboxylic acid], 0.1 to 1 µM.
